The values below come from ChEMBL document CHEMBL1153322, “Identification of novel and orally active spiroindoline NPY Y5 receptor antagonists” (Bioorg Med Chem Lett, 2009).

Activity calls are given as the source filed them. No cut-off for these calls is given here.

What is called IC50 is the point on the concentration scale where inhibition reaches its midpoint. In general, bioavailability refers to the share of a dose that reaches the circulation, judged against a reference dose that is usually intravenous. A low value points to poor availability. Usually solubility stands for how much of the substance goes into solution per volume. A low value points to a poorly soluble substance. What is called logD is the decadic logarithm of the distribution of all forms, ionised or not, between an organic phase and buffer at a given pH. Read a high logD as higher lipophilicity.

Data set [1] can be described thus: Ratio of drug level in brain to plasma of rat at 3 mg/kg, iv after 60 mins. It is filed as ADME, organism-based. Further details: dose 3 mg/kg, route intravenous. The following applies: brain and plasma, read-out: BPR.
Data set [2] can be described thus: Ratio of drug level in brain to plasma of rat at 3 mg/kg, iv after 10 mins. It is filed as ADME, organism-based. Further details: dose 3 mg/kg, route intravenous. The note with it: brain and plasma, read-out: BPR.
In data set [3] the target is T1, Neuropeptide Y receptor type 5 (Homo sapiens, UniProt Q15761).
T1 sequence (Q15761 whole entry): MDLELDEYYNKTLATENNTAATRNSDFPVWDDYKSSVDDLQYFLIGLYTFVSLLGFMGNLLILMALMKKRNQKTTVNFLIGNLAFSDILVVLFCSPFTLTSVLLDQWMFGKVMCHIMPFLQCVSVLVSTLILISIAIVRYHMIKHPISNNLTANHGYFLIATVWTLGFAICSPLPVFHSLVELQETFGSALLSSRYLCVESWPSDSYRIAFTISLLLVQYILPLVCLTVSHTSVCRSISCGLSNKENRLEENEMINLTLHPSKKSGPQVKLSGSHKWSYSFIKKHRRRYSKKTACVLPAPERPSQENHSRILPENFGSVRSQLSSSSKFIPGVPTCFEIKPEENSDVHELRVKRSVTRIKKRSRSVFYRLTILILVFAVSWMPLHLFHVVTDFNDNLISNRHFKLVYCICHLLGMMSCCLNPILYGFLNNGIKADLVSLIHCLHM
Nature of the data set: Displacement of [125I]PYY from human recombinant Y5 receptor expressed in mouse LMtk cells. It is filed as cell-based. A general note: Loss of bound radioactivity is the signal in a displacement assay; it reports binding, not function.

Data set [4] can be described thus: Oral bioavailability in rat at 10 mg/kg. It is filed as ADME, organism-based. The following applies: in vivo.
A short description of data set [5]: Solubility at pH 7. It is filed as physicochemical. The note with it: buffer.
A short description of data set [6]: Solubility at pH 5. It is filed as physicochemical. The note with it: buffer.
Data set [7] in a line: Lipophilicity, log D at pH 7.4. It is filed as physicochemical. The note with it: buffer.
Data set [8] in a line: Solubility at pH 3. It is filed as physicochemical. The following applies: buffer.
Data set [9] can be described thus: Solubility at pH 1. It is filed as physicochemical. The following applies: buffer.
Data set [10] relates to Rattus norvegicus. Nature of the data set: Inhibition of bovine-pancreatic polypeptide-induced food intake in po dosed Sprague-Dawley rat assessed as minimum effective dose measured for 2 hrs. It is filed as functional. The following applies: read-out: MED.
The subject of data set [11] is Rattus norvegicus. Nature of the data set: Inhibition of bovine-pancreatic polypeptide-induced food intake in Sprague-Dawley rat at 30 mg/kg, po measured for 2 hrs. It is filed as functional, organism-based. Further details: dose 30 mg/kg.
Data set [12] has as its system Rattus norvegicus. Description: Toxicity in Sprague-Dawley rat assessed as sedation at 30 mg/kg, po. It is filed as organism-based. Further details: dose 30 mg/kg, route oral. The following applies: in vivo.

As to `CS(=O)(=O)N1CC2(CCN(C(=O)Nc3ncc(-c4ccccc4)cn3)CC2)c2ccccc21`, the Kp at 1 h in data set [1] came out at 0.07. Further, in [2], the Kp at 10 min is 0.14. The IC50 in [3] was 0.57 nM. The molecule also displayed a bioavailability in data set [4] of 24%.
For `CS(=O)(=O)N1CC2(CCN(C(=O)Nc3ccccc3-c3ccccc3)CC2)c2ccccc21`, the IC50 in data set [3] worked out at 430 nM.
Take `CS(=O)(=O)N1CC2(CCN(C(=O)Nc3cnc(-c4ccccc4)nc3)CC2)c2ccccc21`: the IC50 in data set [3] stood at 0.86 nM. The molecule also had a bioavailability in [4] of 0%.
For `CS(=O)(=O)N1CC2(CCN(C(=O)Nc3nccc(-c4ccccc4)n3)CC2)c2ccccc21`, the IC50 in data set [3] is 9.8 nM.
Same read-out and setting: under `NS(=O)(=O)N1CC2(CCN(C(=O)Nc3ccc(Cl)c(Cl)c3)CC2)c2ccccc21` stands 4 nM; under `NS(=O)(=O)N1CC2(CCN(C(=O)Nc3ccccc3Cl)CC2)c2ccccc21`, 5 nM.
Still for that read-out and setting: under `CS(=O)(=O)N1CC2(CCN(C(=O)Cc3ccc(-c4ccccc4)cc3)CC2)c2ccccc21` stands 180 nM; under `CS(=O)(=O)N1CC2(CCN(C(=O)Nc3cccc(-c4ccncc4)c3)CC2)c2ccccc21`, 23 nM; under `CS(=O)(=O)N1CC2(CCN(C(=O)Nc3ccc(Cl)c(Cl)c3)CC2)c2ccccc21`, 0.2 nM.
Regarding `CS(=O)(=O)N1CC2(CCN(C(=O)Nc3ccc(-c4ccccc4)cn3)CC2)c2ccccc21`, the half-inhibitory concentration (IC50) in data set [3] worked out at 0.96 nM. In data set [4], this molecule showed a bioavailability of 0%.
For `CS(=O)(=O)Nc1ccccc1N1CCN(C(=O)Nc2cc(-c3ccc(Cl)cc3)n[nH]2)CC1`, the IC50 in data set [3] is 1.4 nM.
On the same count and under the same terms, under `CCCCc1ccc(NC(=O)N2CCC3(CC2)CN(S(C)(=O)=O)c2ccccc23)cc1` stands 1.2 nM.
Take `CS(=O)(=O)N1CC2(CCN(C(=O)Nc3ccc(-c4ccccc4)cc3)CC2)c2ccccc21`: the solubility in data set [5], in data set [6], in data set [8] and in data set [9] was less than 0.01 µg/mL throughout. The Kp at 1 h in [1] worked out at 1.93. In data set [7], the log distribution coefficient (logD) was more than 4. The Kp at 10 min in [2] amounted to 1.3. Also, the IC50 in [3] came to 0.85 nM. Besides, the bioavailability in data set [4] was 0%.
As for `CS(=O)(=O)N1CC2(CCN(C(=O)Nc3ccc(-c4ccccc4)nc3)CC2)c2ccccc21`, in [3], the IC50 was 0.82 nM. In data set [4], this molecule yielded a bioavailability of 0%.
`CS(=O)(=O)N1CC2(CCN(C(=O)Nc3ccc(-c4cccnc4)cc3)CC2)c2ccccc21`: the Kp at 1 h in [1] was 0.11. Besides, in data set [2], the Kp at 10 min is 0.13. In addition, the IC50 in [3] stood at 2.1 nM. This molecule gave a bioavailability in data set [4] of 47%.
On the same counts, the results for `CS(=O)(=O)N1CC2(CCN(C(=O)Nc3ccc(-c4ccccn4)cc3)CC2)c2ccccc21` are 0.24, 0.23, 3 nM and 12%.
For `NS(=O)(=O)N1CC2(CCN(C(=O)Nc3ccc(Oc4ccccc4)cc3)CC2)c2ccccc21`, the 50% inhibitory concentration (IC50) in [3] was determined as 3 nM.
Take `CC(=O)c1ccc(NC(=O)N2CCC3(CC2)CN(S(N)(=O)=O)c2ccccc23)cc1`: the IC50 in [3] was determined as 2 nM.
The same measure, in the same setting: under `CS(=O)(=O)N1CC2(CCN(C(=O)Nc3cccc(-c4ccccc4)c3)CC2)c2ccccc21` stands 1.3 nM; under `CS(=O)(=O)N1C[C@]2(CC[C@@H](C(=O)Nc3ccc(-c4ccccc4)cc3)CC2)c2ccccc21`, 200 nM.
The same measure, in the same setting: under `O=C(Nc1cc(-c2ccc(Cl)cc2)n[nH]1)C1Cc2ccccc2C1` stands 59 nM.
Turning to `CS(=O)(=O)N1CC2(CCN(C(=O)Nc3cnc(-c4ccccc4)cn3)CC2)c2ccccc21`, in data set [3], the IC50 is 0.97 nM. The molecule also displayed a bioavailability in data set [4] of 0%.
In the case of `CS(=O)(=O)N1CC2(CCN(C(=O)Nc3ccc(-c4ccncc4)cc3)CC2)c2ccccc21`, the minimal effective dose with Rattus norvegicus [10] was found to be 10 mg/kg. The outcome with Rattus norvegicus [11] was Active. Moreover, the Kp at 1 h in [1] is 0.12. For the same molecule, the Activity entry in the data set with Rattus norvegicus [12] is “Non-toxic”. Moreover, the Kp at 10 min in data set [2] came to 0.12. In data set [3], the IC50 worked out at 4.1 nM. This molecule displayed a bioavailability in [4] of 53%.
`CS(=O)(=O)N1C[C@]2(CC[C@H](C(=O)Nc3ccc(-c4ccccc4)cc3)CC2)c2ccccc21`: the IC50 in data set [3] stood at 1.5 nM.
Turning to `CS(=O)(=O)N1CC2(CCN(C(=O)Nc3ccc(-c4ccccc4)nn3)CC2)c2ccccc21`, the Kp at 1 h in [1] worked out at 0.32. The Kp at 10 min in data set [2] was determined as 0.42. The IC50 in data set [3] was found to be 3 nM. In [4], this molecule displayed a bioavailability of 20%.
For `CS(=O)(=O)N1CC2(CCN(C(=O)Nc3ccnc(-c4ccccc4)n3)CC2)c2ccccc21`, the IC50 in data set [3] came out at 7.5 nM.
